Tests used:
B6 male mice [1] = assay: Blood glucose and intraperitoneal glucose tolerance test after three-month treatment; type: in vivo, mouse; settings: for control of the blood glucose level: three months, conclusion; for blood glucose level in intraperitoneal glucose tolerance test (IPGTT): two-hour period after glucose i.p. injection (2 mg/kg body weight)
Protocol: B6 male mice (8-week-old) were daily subjected for three months to a subcutaneous injection of either vehicle (NaCl 0.9%), Dex, CpdX, CpdX(eA), CpdX(eB), CpdX-D3, CpdX-D3(eA) or CpdX-D3(eB) (1 mg/kg body weight, diluted in vehicle). Mice were over-night-fasted. Mouse blood glucose concentration was measured before (T0) and during two hours (T120) after glucose i.p. injection ([…] body weight).

Balb/C mouse ears = assay: TPA-induced irritant contact dermatitis-like inflammation; type: in vivo; settings: for TPA-induced ear skin inflammation, histological analysis: compared to the control; for TPA-induced ear skin inflammation, histological analysis / expression of TSLP in TPA-treated mouse epidermis: data not shown; for TPA-induced transcription of pro-inflammatory genes: ear extracts, q-RT-PCR, D10; for expression of TSLP in TPA-treated mouse epidermis: immunochemistry with TSLP-specific antibody; for TPA-induced skin inflammation: topical, 5 days co-treatment with TPA
Protocol: Balb/C mouse ears were topically treated with TPA to induce an “irritant contact dermatitis-like inflammation”.
Mice were treated for 4 days with TPA, then for 5 extra days (until D9) with either vehicle, TPA alone, TPA and Dex, TPA and CpdX or TPA and CpdX-D3.
At D10, RNA transcripts were extracted from mouse ear skin samples and the transcripts of CCL4, COX2, MMP13, IL-1β, IL-6, TNF-α, TSLP, IL-22 and IL-23 were analyzed by q-RT-PCR. Ear skin was harvested, and histological (with H&E staining) and immunohistochemical (with anti-TSLP antibodies) analyses were carried out.

B6 male mice [2] = assay: Bone formation after three-month treatment (micro-CT, WNT16 transcripts); type: in vivo, mouse; settings: s.c. 1 mg/kg daily, three months
Protocol: B6 male mice (8-week-old) were daily subjected for three months to either a subcutaneous injection of vehicle (NaCl 0.9%), Dex, CpdX, CpdX(eA), CpdX(eB), CpdX-D3, CpdX-D3(eA) or CpdX-D3(eB) (1 mg/kg body weight, diluted in NaCl 0.9%).
From each animal included in the experiments, one femur and the ipsilateral tibia were dissected and preserved in 70% ethanol for further bone microstructure analysis by micro-CT. The FX Quantum micro-CT scanner (Perkin Elmer) was used to perform measurements at the distal femur and midshaft tibia. All scans were performed with an isotropic voxel size of 10 μm, 160 μA tube current and 90 kV tube voltage.
Morphological 3D measurements were performed using the CTAn software (Bruker). Cortical bone parameters, which were measured in the tibia midshaft, included measures of the bone volume fraction as compared to the total volume, cortical thickness, total area, bone area and marrow area. The region of interest was selected from below the distal tibial crest and continued for 20 slices toward the proximal end of the tibia. Trabecular bone parameters were measured in the distal metaphysis of the femurs and included bone volume fraction, trabecular thickness, trabecular number and trabecular spacing. The region of interest was selected from below the distal growth plate where the epiphyseal cap structure completely disappeared and continued for 100 slices toward the proximal end of the femur.
The statistical significance as compared to vehicle treatment was calculated through one-way ANOVA test followed by Dunn's multiple comparison test, *p<0.05; **p<0.01; ***p<0.001; ****p<0.0001.

Balb/C mice = assay: Ovalbumin (OVA)-induced allergic conjunctivitis; type: in vivo, mouse; settings: 0.1% instillation D22 to D24, 20 minutes after the last OVA challenge
Protocol: To investigate the anti-inflammatory effect of CpdX or CpdX-D3 on an allergic conjunctivitis, Balb/C mice were intraperitoneally sensitized with 50 μg OVA with alum on both days D1 and D8, and then challenged from D15 to D21 with 250 μg OVA in 5 μL of sterilized vehicle (0.9% NaCl), which were directly instilled onto the conjunctival sac. From D22 to D24, mice were divided into several groups, and received instillations with either OVA alone, OVA together with 0.1% of either Dex, CpdX, CpdX(eA), CpdX(eB), CpdX-D3, CpdX-D3(eA) or CpdX-D3(eB).
The clinical appearance of mouse eyes was evaluated 20 minutes after the last instillation on D24. Clinical signs (conjunctival hyperemia, lid edema and tearing) were scored to evaluate the occurrence and severity of conjunctivitis as described by Gimenes et al. (2015. Experimental Eye Research 134:24-32). Parameters were graded on a scale ranging from 0 to 3, (0=absence, 1=mild, 2=moderate, and 3=severe symptoms), each animal receiving a total clinical score ranging from 0 to 9. The data were expressed as mean±SEM with at least four mice per treatment.

mice = assay: House dust mite (HDM)-induced asthma-like allergic lung inflammation; type: in vivo, mouse; settings: for number of neutrophils and macrophages in BAL: 0.5 mg/kg on D29-D31, BAL on D32; for total number of BAL cells, eosinophils and lymphocytes: 0.5 mg/kg on D29-D31, BAL on D32, vs control group; for eosinophils in lung, immunohistochemistry: eosinophil-specific antibodies; for eosinophils in lung, immunohistochemistry / neutrophils in lung, immunohistochemistry / expressions of IL-10 and TNFα in lung samples: data not shown; for peribronchiolar and perivascular inflammatory cell infiltration: histology of lung paraffin sections; for neutrophils in lung, immunohistochemistry: neutrophil-specific antibody; for expressions of IL-1β, IL-6, IL-4, IL-5, IL-13, Eotaxin and CCL4 (pro-inflammatory genes) in lung samples / expressions of IL-10 and TNFα in lung samples: q-RT-PCR; for expressions of IL-1β, IL-6, IL-4, IL-5, IL-13, Eotaxin and CCL4 (pro-inflammatory genes) in lung samples / HDM-induced airway hyperresponsiveness (AHR), airway resistance and elastance: D32; for HDM-induced airway hyperresponsiveness (AHR), airway resistance and elastance: response to methacholine 50 mg/mL
Protocol: Glucocorticoids have been (Pearlman et al., 1997. Ann Allergy Asthma Immunol. 78(4):356-62), and are still, widely used in asthma therapy. In order to investigate the possible CpdX anti-inflammatory activity in vivo, mice were sensitized and challenged with either ovalbumin (OVA) or house dust mite (HDM) to induce an asthma-like allergic lung inflammation.
Mice were intranasally sensitized with 1 μg HDM from DO to D4, and further intranasally sensitized with 10 μg HDM on D14 and D21. Mice were then subdivided into eight groups, and on D29, D30 and D31, each mouse was again intranasally challenged with 1 μg HDM. The first seven groups received respectively 0.5 mg/kg of body weight of Dex, CpdX, CpdX(eA), CpdX(eB), CpdX-D3, CpdX-D3(eA) or CpdX-D3(eB), while the eighth group served as a control.
On D32, the airway responsiveness was invasively determined using a computer-controlled small animal ventilator (FlexVent® system, SCIREQ Technologies). Mice were anesthetized with xylazine (15 mg/kg, i.p.), followed 15 minutes later by an i.p. injection of pentobarbital sodium (54 mg/kg). An 18-gauge metal needle was then inserted into the trachea, each mouse was connected to the FlexVent® ventilator and quasi-sinusoidally ventilated with a tidal volume of 10 mL/kg at a frequency of 150 breaths/minute and a positive end-expiratory pressure of 2 cm H2O, in order to achieve a mean lung volume close to spontaneous breathing. After baseline measurement, mice were challenged for 10 seconds with a saline aerosol and, at 4.5-minute intervals, with 50 mg/mL methacholine. Airway resistance and elastance were expressed as cmH20·s/mL and cmH2O/mL respectively.
The lung allergic inflammation was assessed by examination of the bronchoalveolar lavage (BAL) fluid from each of these HDM-challenged mice. The total BAL cells, eosinophils, neutrophils, macrophages and lymphocytes were counted. RNA transcripts were extracted from lung samples. RNA transcripts of IL-1β, IL-6, IL-4, IL-5, IL-13, Eotaxin, CCL4, IL-10 and TNFα were analyzed by q-RT-PCR. Lung tissues were harvested and histological (with H&E staining) and immunohistochemical analyses were also carried out (with eosinophil-specific and neutrophil-specific antibodies).

bone formation in cortical and trabecular bones (B6 male mice [2])	SMILES	control of the blood glucose level (B6 male mice [1])	blood glucose level in intraperitoneal glucose tolerance test (IPGTT) (B6 male mice [1])	TPA-induced ear skin inflammation, histological analysis (Balb/C mouse ears)	TPA-induced transcription of pro-inflammatory genes (Balb/C mouse ears)	expression of TSLP in TPA-treated mouse epidermis (Balb/C mouse ears)	TPA-induced skin inflammation (Balb/C mouse ears)	clinical signs of allergic conjunctivitis (conjunctival hyperemia, lid edema and tearing) (Balb/C mice)	number of neutrophils and macrophages in BAL (mice)	total number of BAL cells, eosinophils and lymphocytes (mice)	eosinophils in lung, immunohistochemistry (mice)	peribronchiolar and perivascular inflammatory cell infiltration (mice)	neutrophils in lung, immunohistochemistry (mice)	expressions of IL-1β, IL-6, IL-4, IL-5, IL-13, Eotaxin and CCL4 (pro-inflammatory genes) in lung samples (mice)	expressions of IL-10 and TNFα in lung samples (mice)	HDM-induced airway hyperresponsiveness (AHR), airway resistance and elastance (mice)
did not affect	COc1ccc(F)cc1C(C)(C)CC(O)(CNc1ccc2c(c1)COC2=O)C(F)(F)F (racemic) [CpdX, 5-[4-(5-fluoro-2-methoxyphenyl)-2-hydroxy-4-methyl-2-(trifluoromethyl)pentylamino]-isobenzofuran-1(3H)-one]	does not significantly affect	no significant difference	significantly decreased	repressed, as efficiently as Dex	similarly strongly decreased	significantly decreased	considerably reduced	No significant change	significantly decreased	decreased	strongly decreased	no significant change	significantly and similarly decreased	not affected	similarly reduced
did not affect	[2H]C([2H])([2H])Oc1ccc(F)cc1C(C)(C)CC(O)(CNc1ccc2c(c1)COC2=O)C(F)(F)F (racemic) [CpdX-D3, 5-{4-[2-(methoxy-D3)-5-fluorophenyl]-2-hydroxy-4-methyl-2-(trifluoro-methyl)pentylamino}isobenzofuran-1(3H)-one]	does not significantly affect	no significant difference	significantly decreased	repressed, as efficiently as Dex	similarly strongly decreased	significantly decreased	considerably reduced	No significant change	significantly decreased	decreased	strongly decreased	no significant change	significantly and similarly decreased	not affected	similarly reduced
did not affect	COc1ccc(F)cc1C(C)(C)CC(O)(CNc1ccc2c(c1)COC2=O)C(F)(F)F (single isomer, unassigned) [CpdX(eA), 5-[4-(5-fluoro-2-methoxyphenyl)-2-hydroxy-4-methyl-2-(trifluoromethyl)pentylamino]-isobenzofuran-1(3H)-one]	does not significantly affect	no significant difference	–	–	–	–	considerably reduced	–	efficiently decreased	–	decreased	–	efficiently decreased	–	reduced
did not affect	COc1ccc(F)cc1C(C)(C)CC(O)(CNc1ccc2c(c1)COC2=O)C(F)(F)F (single isomer, unassigned) [CpdX(eB), 5-[4-(5-fluoro-2-methoxyphenyl)-2-hydroxy-4-methyl-2-(trifluoromethyl)pentylamino]-isobenzofuran-1(3H)-one]	does not significantly affect	no significant difference	–	–	–	–	considerably reduced	–	–	–	–	–	–	–	–
did not affect	[2H]C([2H])([2H])Oc1ccc(F)cc1C(C)(C)CC(O)(CNc1ccc2c(c1)COC2=O)C(F)(F)F (stereo not shown) [CpdX-D3(eA), 5-{4-[2-(methoxy-D3)-5-fluorophenyl]-2-hydroxy-4-methyl-2-(trifluoromethyl)pentylamino}isobenzofuran-1(3H)-one]	does not significantly affect	no significant difference	–	–	–	–	considerably reduced	–	efficiently decreased	–	decreased	–	efficiently decreased	–	–
did not affect	[2H]C([2H])([2H])Oc1ccc(F)cc1C(C)(C)CC(O)(CNc1ccc2c(c1)COC2=O)C(F)(F)F (stereo not shown) [CpdX-D3(eB), 5-{4-[2-(methoxy-D3)-5-fluorophenyl]-2-hydroxy-4-methyl-2-(trifluoromethyl)pentylamino}isobenzofuran-1(3H)-one]	does not significantly affect	no significant difference	–	–	–	–	considerably reduced	–	–	–	–	–	–	–	–
